Target: cGMP-specific 3',5'-cyclic phosphodiesterase (Homo sapiens, UniProt O76074)
Assay: Inhibition of PDE5A (unknown origin) using […] as substrate incubated for 1 hr by fluorescence polarization assay

Row | IC50 [µM] | Structure (SMILES)
1 | 0.291 | Cc1ccc(-c2c(C#N)c(=O)n(Cc3ccccc3)c3ccc(NC(C)c4ccccn4)cc23)cc1 (centres undefined)
2 | 0.055 | Cc1ccc(-c2c(C#N)c(=O)n(CC3CCCC3)c3c(NC(C)c4ccccn4)cccc23)cc1 (centres undefined)
3 | 0.198 | Cc1ccc(-c2c(C#N)c(=O)n(Cc3ccc4c(c3)OCO4)c3c(NC(C)c4ccccn4)cccc23)cc1 (centres undefined)
4 | 0.03 | CCCCNc1cccc2c(-c3ccc(C)cc3)c(C#N)c(=O)n(Cc3ccccc3)c12
5 | 0.01 | Cc1ccc(-c2c(C#N)c(=O)n(Cc3ccccc3)c3c(NC(C)c4ccccn4)cccc23)cc1 (centres undefined)
6 | 0.005 | COc1ccc(-c2c(C#N)c(=O)n(Cc3ccccc3)c3c(NC(C)c4ccccn4)cccc23)cc1 (centres undefined)
7 | 0.073 | Cc1ccc(-c2c(C#N)c(=O)n(Cc3ccncc3)c3c(N[C@H](C)c4ccccn4)cccc23)cc1
8 | 0.578 | Cc1ccc(-c2c(C#N)c(=O)n(Cc3ccccc3)c3cc(NC(C)c4ccccn4)ccc23)cc1 (centres undefined)
9 | 0.011 | Cc1ccc(-c2c(C#N)c(=O)n(Cc3ccccc3)c3c(NC(C)c4ccccc4)cccc23)cc1 (centres undefined)

Source: ChEMBL document CHEMBL6078681, “Discovery and Optimization of Dihydroquinolin-2(1H)-ones as Novel Highly Selective and Orally Bioavailable Phosphodiesterase 5 Inhibitors for the Treatment of Pulmonary Arterial Hypertension” (J Med Chem, 2024)
